Measurements from patent publication US9445596B2, “Small molecule compounds for the control of nematodes” (California Institute of Technology, priority 2011, dated 2016).
Entries after “also recorded” stand apart in the source; their conditions may differ.

Columns and labels:
[1] = system: several of the tested nematode species; assay: Retention assay, several nematode species; type: in vivo; details: 1 nM, 1 μM and 1 mM tested
Procedure: OP50 E. coli was grown on a standard 5 cm agar plate (made with standard Nematode Growth Medium). The bacterial lawn was 16 mm in diameter and was grown overnight at 20° C. before being used in trials. Two 4 mm spots (0.6 μL) were placed on opposite sides of the bacterial lawn (using a transparent template to guide spot placement), and several minutes elapsed for the liquid to settle in before placing nematodes down on the assay. Recording began immediately upon worm placement. 0.6 μL of the control was placed on one side of the lawn, and 0.6 μL of the experimental cue was placed on the other side of the lawn, changing the location of the cue throughout trials between left/right and top/bottom to avoid bias.
Nematodes were isolated by gender at the L4 stage the day before being used in trials as developed adults. Worms were evenly divided and placed at two points equidistant from the foci of the scoring region. Trials were recorded for 20 minutes, and frames were collected for analysis at 1 frame per second. Results were averaged from at least three different trials. For every nematode species in this study, a different total number of worms (using water in both scoring regions) was tested to determine the minimum number of worms necessary for consistent unbiased results over a 20 minute trial. The total number of worms used in the multiple species assays depended on that species' optimal parameters. 10 worms were used for P. redivivus males and females, 20 worms were used for C. elegans males and O. dolichuridae males, and 14 worms were used for S. glaseri males. The Automated Software was used to compare worm occupancy in each scoring region over time, and the Chemotaxis Index (Bargmann et al., Cell 74:515-27 (1993), which is hereby incorporated by reference in its entirety) was adapted to score preference or avoidance to each ascaroside.
A video camera attached to the microscope produced a digital video stream, which was then analyzed. The ratio of the time the average worm spent in each region of interest was calculated for every trial. For ease of implementation, all worms in a single experiment were assumed to be roughly the same size. Thus worm pixels were counted instead of whole worms, allowing fractions of a worm in the region of interest to be taken into account. It also eliminated the need for a shape-based worm identification algorithm, and allowed each frame to be analyzed independently. A band-pass filter was applied to each frame to eliminate the effect of uneven lighting and also accentuate the worms against the background. The worm was then identified after thresholding the filtered image. Throughout each experiment, the locations and sizes of the regions of interest were known. Through the filtering described above, it is known which pixels are occupied by worms and which ones are not. Thus, the ratio of worm-pixels to all pixels inside the region of interest can be calculated to produce the worm-occupancy ratio. This calculation was done for every frame, giving a plot output of worm-occupancy ratio vs. time for each region.

C. elegans dauer larvae = assay: Dispersal assay, C. elegans dauer; type: in vivo; details: for dauer larvae that moved away from the release location, normalized to the percent of the positive control response: physiological concentration, with 0.25% E. coli (HB101), food only control approximately 35%; for substitution for ascr#2 in the C. elegans dispersal blend: in vivo
Procedure: C. elegans dauer juveniles were washed with MILLI-Q water 3 times, placed into 6 cm petri dishes with a small amount of water, and rested overnight. Approximately 200-300 nematodes in 10 μl of water were placed on an agar plate, to which 2 μl of treatment was added. The liquid culture that produced 60% dauer animals was centrifuged, filtered with a 0.45 μm filter, and used as a positive control for dispersal. Thereafter, media were lyophilized and resuspended in MILLI-Q water 5 times. 2 μl to 10 μl of nematode suspension was used for the assay. As a negative control, 0.5% E. coli (HB101) was prepared in S-complete, lyophilized, and adjusted to the final volume of 0.25% E. coli in the assay.
Nematodes were quantified using Image J software (Image Processing and Analysis in Java, National Institutes of Health). The number of nematodes visualized and counted using Image J is illustrated in FIG. 63B. Nematodes inside the circle were subtracted manually from the total number of worms counted because of the location of their placement. Each treatment was replicated 9-11 times. The graph was normalized to the positive control, the dauer conditioned medium.

C. elegans males = assay: Attraction assay (long-range, point source); type: in vivo; details: point source on 10 cm plate
Procedure: 10 cm standard chemotaxis plates were prepared (Bargmann et al., Cell 74:515-27 (1993), which is hereby incorporated by reference in its entirety) and stored at 4° C. until the day before use. Standard 1 cm-diameter copper pipes were sectioned into 1 cm-tall segments to use for the holding chambers. The females/hermaphrodites were isolated overnight, washed 3 times in M9 buffer, and then allowed to wander on a plate pre-conditioned with 50 uL of 1000× streptomycin for 2 hours to kill any bacteria that might produce a false positive attractant. The nematodes were then washed 3 times, and the supernatant from the last wash was placed in a copper chamber, as the control, 1 cm from the border of the 10 cm plate. The nematodes were suspended in M9 within the copper chamber, 1 cm from the border opposite the control chamber. After 6 hours, they were subsequently removed and replaced with 3 μL of 1M sodium azide. 100 C. elegans adult males were isolated overnight, washed several times in ddH2O, and placed at the center of the agar plate. After several hours, males paralyzed within 2 cm of each region were scored. The Chemotaxis Index (Bargmann et al., Cell 74:515-27 (1993), which is hereby incorporated by reference in its entirety) was then used to score male chemotaxis to either point source.

C. elegans = details: shown previously; cited from earlier work
S. feltiae IJs = assay: Dispersal assay, S. feltiae infective juveniles; type: in vivo; details: for dispersal activity in combination with natural fractions B and C: ascr#9 40 pmol/μl, ascr#11 1.3 pmol/μl; for dispersal activity when tested alone: physiologically relevant concentrations
Procedure: S. feltiae IJs were washed with MILLI-Q water three times and incubated in 6 cm petri dishes for […] with a small amount (4-5 ml) of MILLI-Q water. Nematodes were placed the following day on a 10.7 g/L agar with 1010 g/cm^2 gel strength (PhytoTechnology Lab. Shawnee Mission, Kans.). Nematode behavior was assayed on multiple plates with internal plate replicates to rule out the possibility that behavior was affected by plate composition. Approximately 300 IJs in 10 μl water were placed on an agar medium and the test compounds or extracts (1-2 μl) were placed into the nematode suspension. Upon absorption (˜15 minutes) of the liquid, the freely moving nematodes were video recorded for 5-10 minutes. Dispersal behavior is temperature and season dependent. During winter, the assay is effective at room temperature (22±1° C.). During summer, the assay requires a temperature controlled environment due to the effects on nematode behavior above 23° C.
Activity-guided fractionation was conducted as reported in Srinivasan et al., Nature 454:1115-18 (2008), which is hereby incorporated by reference in its entirety, with modifications. A total of 33 insect host cadavers (G. mellonella larvae) were placed into 70% EtOH and stored at −20° C. until extraction. The insect cadavers were homogenized using 1 g of ceramic zirconium beads (1.25 mm) (ZIRMIL) in 2 ml tubes for 37 seconds using a Precellys24 homogenizer. Samples were centrifuged for 15 minutes at 18400 relative centrifugal force (rcf), and the supernatant was lyophilized and resuspended in MILLI-Q water. The dispersal activity of nematodes was tested using the dispersal assay described in Example 60 and a physiologically relevant concentration of insect host cadaver extract or fractionated extract. To facilitate calculations for physiologically relevant concentration of the ascarosides, wax worm volume was estimated at ˜200 μl; the average weight of wax worms was 232+57 mg (n=19).
The first reverse-phase solid-phase extraction was performed using Sep-Pak Plus C18 cartridges (Waters corporation, Milford, Mass.). The initially collected flow through was termed Fraction A. Thereafter, the column was washed with water, collected, and saved. Subsequently, the column was eluted with 50% (Fraction B) and 90% (Fraction C) MeOH. The fractions were tested for dispersal activity both individually and in combination. Also, individual fractions were analyzed by LC-MS. Fraction A contained ascr#9, which was collected by LC-MS and tested for activity with Fraction B+C.

[2] = system: P. pacificus strain RSB020; assay: Mouth-form dimorphism assay; type: in vivo, Pristionchus pacificus; details: synthetic samples; first assayed at 1 μM
Procedure: Mouth-form dimorphism assays were performed using P. pacificus strain RSB020. The synthetic compounds dissolved in ethanol (0.5 mM) were diluted with water to make 100 μl solution and subsequently added to 3 mL NGM-agar (1 μM final concentration). The assay plates were seeded with 50 μl OP50 culture in LB medium and incubated overnight at 20° C. to allow bacterial growth. Each replicate included the progeny of two mothers, which were picked as adult hermaphrodites of a consistent age (carrying 4-6 eggs) and which were all from the same P. pacificus culture plate. Following the placement of mothers on assay plates, plates were kept at 20° C. for six days, such that the entire broods were adults at the time of screening. A random sample of 50 hermaphrodite progeny was screened per plate. All animals were screened by differential interference contrast (DIC) microscopy on a Zeiss Axiskop. The following discrete characters were used to discriminate eurystomatous from stenostomatous individuals, respectively: (1) claw-shaped vs. flint-shaped (i.e. dorsoventrally symmetrical) dorsal tooth; (2) presence vs. absence of a subventral tooth; (3) strongly vs. weakly sclerotized stomatal walls. No intermediate mouth-forms were observed. Experiments were conducted in triplicate for each treatment. In assays of responses to compounds of several concentrations (1, 0.3, 0.1, 0.03, 0.01 μM final concentrations), experiments were performed as described above, with the following modifications. To allow greater resolution of responses to lower concentrations, 60 randomly screened individuals in each of five replicates per concentration per compound were assayed. All concentration-curve experiments were performed in parallel using mothers picked randomly from the same two source populations. To prepare large numbers of individual mothers for these experiments, source populations were established from virgin hermaphrodites to constrain the presence of males and were conditioned to well-fed and ambient conditions for at least one generation before mothers were picked for the assays.

P. pacificus = assay: Dauer formation assay; type: in vivo, Pristionchus pacificus; details: synthetic samples; first assayed at 1 μM
Procedure: Dauer formation assays were performed as described in Ogawa et al., Curr. Biol. 19:67-71 (2009), which is hereby incorporated by reference in its entirety, using heat- or kanamycin-killed E. coli OP50. Synthetic compounds were dissolved in ethanol (0.5 mM, stock solution) and combined with water to make a […] and subsequently added to 3 mL NGM-agar without peptone ([…], 0.3, 0.1 μM final concentrations).

[3] = system: C. elegans hermaphrodites and males; details: from 1 μM concentration; previous study (Srinivasan 2008); cited from earlier work

Row | SMILES | preference for areas conditioned by the ascaroside [1] | dauer larvae that moved away from the release location, normalized to the percent of the positive control response (C. elegans dauer larvae) [%] | male attraction from a distance / chemotaxis towards a point source (C. elegans males) | promotion of dauer entry (C. elegans) | dispersal activity in combination with natural fractions B and C (S. feltiae IJs) | dispersal activity when tested alone (S. feltiae IJs) | induction of the eurystomatous mouth form [2] | also measured
1 | C[C@H](CC/C=C/C(=O)Nc1ccc(C(=O)O)cc1)O[C@@H]1O[C@@H](C)[C@H](O)C[C@H]1O [ascr#8] | preferred | 50 | not active | individually promote dauer entry |  |  |  | 
2 | C[C@H](CC(=O)O)O[C@@H]1O[C@@H](C)[C@H](O)C[C@H]1O [ascr#11] |  |  |  |  | restored the full activity; also recorded: sufficient to cause dispersal | did not have activity by themselves |  | 
3 | C[C@H](CCC(=O)O)O[C@@H]1O[C@@H](C)[C@H](O)C[C@H]1O [ascr#9] | preferred |  |  |  | restored the original dispersal activity | did not have activity by themselves | inactive | substitution for ascr#2 in the C. elegans dispersal blend (C. elegans dauer larvae): can replace the function of ascr#2; substitution for ascr#2 in the C. elegans dispersal blend (C. elegans dauer larvae; listed as Ascr#9): able to substitute for its structural analog ascr#2
4 | C[C@H](CCC(=O)O)O[C@@H]1O[C@@H](C)[C@H](O)C[C@@H]1O [part#9, (R)-4-(((2R,3S,5R,6S)-3,5-dihydroxy-6-methyltetrahydro-2H-pyran-2-yl)oxy)pentanoic acid] |  |  |  |  |  |  | inactive | dauer induction (P. pacificus): weaker dauer inducation
5 | CC(=O)CCC[C@@H](C)O[C@@H]1O[C@@H](C)[C@H](O)C[C@H]1O [ascr#2] |  | 40 | chemotax towards | individually promote dauer entry |  |  |  | lowest amount eliciting male attraction (as low as) (C. elegans males): 500 attomol; most active amount for attraction in C. elegans [3]: ~1 pmol
